The source of these data is patent publication US20220235029A1, “CRYSTAL FORM OF C-MET/AXL INHIBITOR” (MEDSHINE DISCOVERY INC., priority 2019, published 2022).

Data set [1] in a line: Study on the hygroscopicity (DVS detection). In kind it is physicochemical. Particulars: 25° C./80% RH. Here is the method: Dynamic Vapor Sorption (DVS) Instrument in the Present Disclosure
Instrument model: DVS Advantage-1 (SMS)
Detection condition: about 10-15 mg of the sample was used for DVS detection.
Equilibrium: dm/dt=0.01%/min: (time: 10 min, longest: 180 min)
RH (%) gradient for testing: 10%
RH (%) gradient range for testing: 0%-90%-0%
The hygroscopicity was evaluated using the judgment criterias in the following Table 6: […]

Data set [2] relates to MKN45 gastric cancer cell line. Nature of the data set: Cell proliferation inhibition experiment (CellTiter-Glo). The data set is classed as cell-based. Here is the method: Reagents and Consumables:
The cell plates were incubated in a carbon dioxide incubator for 3 days.
(In general: In ATP-based viability assays light output follows the ATP content of the culture.)

Data set [3] concerns human Hs746t gastric cancer cell xenograft tumor model. Nature of the data set: In vivo pharmacodynamic study, Hs746t gastric cancer cell xenograft tumor model. Also on record: species or system BALB/c nude mice. The following applies: for Tumor volume (mm^3) (20th day): average value ± SEM, Hs746t xenograft in BALB/c nude mice; for T/C (%) / TGI (%): calculated based on the tumor volume on the 21st day after administration. As to the method: Human gastric cancer HS 746T cells were cultured in a single layer in vitro. The culturing condition was DMEM medium supplemented with 10% fetal bovine serum, 100 U/mL penicillin and […] in 37° C., 5% CO2 incubator. Digestion and passage treatment with trypsin-EDTA was carried out twice a week. When the cell saturation was 80%-90% and the number reached the required level, the cells were collected, counted and seeded.
BALB/c nude mice, male. 6-8 weeks old, weighting 18-22 g.
0.2 mL (2×10^6, cells:Matrigel=1:1) HS 746T cells were inoculated subcutaneously on the right back of each mouse. The drug was administered in groups when the average tumor volume reached approximately 100-150 mm^3.
Experimental index: The experimental index was whether the tumor growth was inhibited, delayed or cured. The diameters of the tumor were measured twice a week using a vernier caliper. The formula for calculating the tumor volume is V=0.5a×b^2, a and b represent the long and short diameters of the tumor respectively. The antitumor effect (TGI) of the compound was evaluated by T-C (days) and T/C (%).

`CN(C)C(=O)Nc1cc(Oc2ccc(NC(=O)c3cn(CC4CC4)c(=O)n(-c4ccc(F)cc4)c3=O)cc2F)ccn1`: in data set [1], the Classification of hygroscopicity entry is listed as “slightly hygroscopic” and the “Hygroscopic weight gain at 25/80% RH” value is recorded as 0.2801%. Also, in data set [2], the “inhibitory activity on MKN45 cell (in words)” value was “good inhibitory activity”.
In the case of `CN(C)C(=O)Nc1cc(Oc2ccc(NC(=O)c3cn(CC4CC4)c(=O)n(-c4ccc(F)cc4)c3=O)cc2F)ccn1.Cc1ccc(S(=O)(=O)O)cc1`, in data set [1], the Classification of hygroscopicity result was “slightly hygroscopic” and the “Hygroscopic weight gain at 25/80% RH” value was determined as 0.999%.
Take `CCOc1ccn(-c2ccc(F)cc2)c(=O)c1C(=O)Nc1ccc(Oc2ccnc(N)c2Cl)c(F)c1` [BMS777607]: in data set [3], the “Tumor volume (mm^3) (20th day)” value turned out to be 1872 ± 355 mm^3, the “T/C (%)” value is recorded as 27.61% and the “TGI (%)” value is 73.58%.
Consider `CN(C)C(=O)Nc1cc(Oc2ccc(NC(=O)c3cn(CC4CC4)c(=O)n(-c4ccc(F)cc4)c3=O)cc2F)ccn1` [Compound represented by formula (I)], for which, in data set [3] (Hs746t gastric cancer cell xenograft tumor model), the “tumor inhibitory effect (in words)” value is “better tumor inhibitory effect than BMS777607 and LY2801653”. In data set [3], the “Tumor volume (mm^3) (20th day)” value turned out to be 4 ± 2 mm^3, the “T/C (%)” value is recorded as 104.82% and the “TGI (%)” value is reported as 0.15%.
For the compound `Cc1ccc(C(=O)Nc2ccc(Oc3cc4cnn(C)c4cc3-c3cn[nH]c3)c(F)c2)c(=O)n1-c1ccc(F)cc1` [LY2801653], in data set [3], the “Tumor volume (mm^3) (20th day)” value was determined as 88 ± 13 mm^3, the “T/C (%)” value is reported as 101.62% and the “TGI (%)” value was 3.45%.
